Experimental data as given in article PMC7505981, “Preparation of a whole cell catalyst overexpressing acetohydroxyacid synthase of Thermotoga maritima and its application in the syntheses of α-hydroxyketones” (Scientific Reports, 2020).

Biological target: T1, TmcAHAS (large catalytic subunit of acetohydroxyacid synthase of Thermotoga maritima) (Thermotoga maritima, UniProt Q9WZ18)
T1 construct: gene TM_0548; catalytic subunit alone, without regulatory subunit; gene from genomic DNA in pET28a (NdeI/BamHI), N-terminal His6 tag, E. coli Rosetta(DE3), Ni-NTA purified, about 68 kDa on SDS-PAGE; forward primer after NdeI site encodes MLLDEI
T1 sequence (Q9WZ18 entry or part of it): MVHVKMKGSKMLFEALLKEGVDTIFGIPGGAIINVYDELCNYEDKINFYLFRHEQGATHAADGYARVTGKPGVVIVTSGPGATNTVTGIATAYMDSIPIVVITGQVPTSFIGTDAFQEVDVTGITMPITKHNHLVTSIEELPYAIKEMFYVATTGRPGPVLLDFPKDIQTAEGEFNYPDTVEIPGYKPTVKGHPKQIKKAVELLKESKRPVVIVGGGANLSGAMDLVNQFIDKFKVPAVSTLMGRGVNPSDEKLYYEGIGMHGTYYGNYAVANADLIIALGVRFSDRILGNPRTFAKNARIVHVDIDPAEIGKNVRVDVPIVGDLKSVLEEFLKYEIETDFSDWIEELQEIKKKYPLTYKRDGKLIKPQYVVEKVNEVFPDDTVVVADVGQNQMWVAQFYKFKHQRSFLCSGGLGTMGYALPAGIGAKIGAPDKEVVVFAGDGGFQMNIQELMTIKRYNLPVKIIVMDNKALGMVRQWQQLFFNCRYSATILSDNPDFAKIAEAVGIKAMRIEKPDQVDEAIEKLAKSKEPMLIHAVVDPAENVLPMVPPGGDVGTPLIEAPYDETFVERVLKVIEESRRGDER
Experiment: photometric creatine/alpha-naphthol assay of acetoin at […] nm, Michaelis-Menten fit
Format: biochemical
Settings: 50 mM phosphate pH 8.0, 80 °C, 10 min, 10 μM FAD, 1 mM ThDP, 10 mM Mg2+; catalytic subunit alone; read-out: Km for pyruvate

`CC(=O)C(=O)O` [pyruvate] gave a Km of 19.1 ± 1.6 mM.
